Experimental data published in US9302999B2, “Substituted triazoles as herbicides” (E. I. DU PONT DE NEMOURS AND COMPANY, priority 2012, dated 2016).

What was measured:
Format in all cases: in vivo
[1] = system: pigweed (Amaranthus retroflexus); assay: Test D pre-/postemergence: pigweed
Source text: (§1) Seeds of plant species selected from bluegrass (annual bluegrass, Poa annua), blackgrass (Alopecurus myosuroides), canarygrass (Phalaris minor), chickweed (common chickweed, Stellaria media), galium (catchweed bedstraw, Galium aparine), bromegrass, downy (downy bromegrass, Bromus tectorum), field poppy (Papaver rhoeas), field violet (Viola arvensis), foxtail, green (green foxtail, Setaria viridis), deadnettle (henbit deadnettle, Lamium amplexicaule), ryegrass, Italian (Italian ryegrass, Lolium multiflorum), kochia (Kochia scoparia), lambsquarters (Chenopodium album), oilseed rape (Brassica napus), pigweed (Amaranthus retroflexus), Russian thistle (Salsola iberica), chamomile (scentless chamomile, Matricaria inodora), speedwell (bird's-eye speedwell, Veronica persica), barley, spring (spring barley, Hordeum vulgare), wheat, spring (spring wheat, Triticum aestivum), buckwheat, wild (wild buckwheat, Polygonum convolvulus), mustard, wild (wild mustard, Sinapis arvensis), oat, wild (wild oat, Avena fatua), radish, wild (wild radish, Raphanus raphanistrum), windgrass (Apera spica-venti), barley, winter (winter barley, Hordeum vulgare), and wheat, winter (winter wheat, Triticum aestivum) were planted into a silt loam soil and treated preemergence with test chemicals formulated in a non-phytotoxic solvent mixture which included a surfactant. At the same time, these same crop and weed species were planted in pots containing the planting medium comprising spaghnum peat moss, vermiculite, wetting agent and starter nutrients and treated with postemergence applications of the test chemicals formulated in the same manner. Plants ranged in height from 2 to 18 cm (1- to 4-leaf stage).
(§2) Treated plants and controls were maintained in a controlled growth environment for 14 to 21 days after which time all species were compared to controls and visually evaluated. Plant response ratings, summarized in Table D, are based on a scale of 0 to 100 where 0 is no effect and 100 is complete control. A dash (-) response means no test result.

[2] = system: speedwell (bird's-eye speedwell, Veronica persica); assay: Test D pre-/postemergence: speedwell
Source text: as §1, §2

[3] = system: windgrass (Apera spica-venti); assay: Test D pre-/postemergence: windgrass
Source text: as §1, §2

[4] = system: oat, wild (wild oat, Avena fatua); assay: Test D pre-/postemergence: oat, wild
Source text: as §1, §2

[5] = system: foxtail, green (green foxtail, Setaria viridis); assay: Test D pre-/postemergence: foxtail, green
Source text: as §1, §2

[6] = system: bluegrass (annual bluegrass, Poa annua); assay: Test D pre-/postemergence: bluegrass
Source text: as §1, §2

[7] = Postemergence, 31 g ai/ha, scale 0 to 100 (0 no effect, 100 complete control)
[8] = Postemergence, 62 g ai/ha, scale 0 to 100 (0 no effect, 100 complete control)
[9] = Postemergence, 125 g ai/ha, scale 0 to 100, 0 no effect, 100 complete control
[10] = Postemergence, 250 g ai/ha, scale 0 to 100 (0 no effect, 100 complete control)
[11] = Preemergence, 31 g ai/ha, scale 0 to 100, 0 no effect, 100 complete control
[12] = Preemergence, 62 g ai/ha, scale 0 to 100
[13] = Preemergence, 125 g ai/ha, scale 0 to 100
[14] = Preemergence, 250 g ai/ha, scale 0 to 100
[15] = Postemergence, 16 g ai/ha, scale 0 to 100

**Q.** What does the source list for `FC(F)(F)COc1nn(-c2ccc(C(F)(F)F)cc2)nc1Cc1ccnc(C(F)(F)F)c1` [Compound 14, 4-[[5-(2,2,2-trifluoroethoxy)-2-[4-(trifluoromethyl)phenyl]-2H-1,2,3-triazol-4-yl]methyl]-2-(trifluoromethyl)pyridine]?
**A.** Plant response rating: Pigweed [1, 7]: 100; Plant response rating: Pigweed [1, 8]: 100; Plant response rating: Pigweed [1, 9]: 100; Plant response rating: Pigweed [1, 10]: 100; Plant response rating, Pigweed [1, 11]: 20; Plant response rating, Pigweed [1, 12]: 70; Plant response rating, Pigweed [1, 13]: 90; Plant response rating, Pigweed [1, 14]: 100; Plant response rating: Speedwell [2, 7]: 100; Plant response rating: Speedwell [2, 8]: 100; Plant response rating: Speedwell [2, 9]: 100; Plant response rating: Speedwell [2, 10]: 100; Plant response rating, Speedwell [2, 11]: 100; Plant response rating, Speedwell [2, 12]: 100; Plant response rating, Speedwell [2, 13]: 100; Plant response rating, Speedwell [2, 14]: 100; Plant response rating: Windgrass [3, 7]: 30; Plant response rating: Windgrass [3, 8]: 40; Plant response rating: Windgrass [3, 9]: 75; Plant response rating: Windgrass [3, 10]: 100; Plant response rating, Windgrass [3, 11]: 10; Plant response rating, Windgrass [3, 12]: 20; Plant response rating, Windgrass [3, 13]: 40; Plant response rating, Windgrass [3, 14]: 85; Plant response rating: Oat, Wild [4, 7]: 15; Plant response rating: Oat, Wild [4, 8]: 25; Plant response rating: Oat, Wild [4, 9]: 40; Plant response rating: Oat, Wild [4, 10]: 55; Plant response rating, Oat, Wild [4, 11]: 0; Plant response rating, Oat, Wild [4, 12]: 20; Plant response rating, Oat, Wild [4, 13]: 20; Plant response rating, Oat, Wild [4, 14]: 50; Plant response rating: Foxtail, Green [5, 7]: 10; Plant response rating: Foxtail, Green [5, 8]: 25; Plant response rating: Foxtail, Green [5, 9]: 30; Plant response rating: Foxtail, Green [5, 10]: 95; Plant response rating, Foxtail, Green [5, 11]: 0; Plant response rating, Foxtail, Green [5, 12]: 10; Plant response rating, Foxtail, Green [5, 13]: 75; Plant response rating, Foxtail, Green [5, 14]: 100; Plant response rating: Bluegrass [6, 7]: 20; Plant response rating: Bluegrass [6, 8]: 35; Plant response rating: Bluegrass [6, 9]: 70; Plant response rating: Bluegrass [6, 10]: 95; Plant response rating, Bluegrass [6, 11]: 0; Plant response rating, Bluegrass [6, 12]: 30; Plant response rating, Bluegrass [6, 13]: 85; Plant response rating, Bluegrass [6, 14]: 100

**Q.** Which results are given for `COc1nn(-c2ccc(C(F)(F)F)cc2)nc1Cc1ccnc(C(F)(F)F)c1` [Compound 15, 4-[[5-methoxy-2-[4-(trifluoromethyl)phenyl]-2H-1,2,3-triazol-4-yl]methyl]-2-(trifluoromethyl)pyridine]?
**A.** Plant response rating: Pigweed [1, 7]: 80; Plant response rating: Pigweed [1, 8]: 80; Plant response rating: Pigweed [1, 9]: 100; Plant response rating: Pigweed [1, 10]: 100; Plant response rating, Pigweed [1, 15]: 80; Plant response rating, Pigweed [1, 11]: 20; Plant response rating, Pigweed [1, 12]: 70; Plant response rating, Pigweed [1, 13]: 98; Plant response rating, Pigweed [1, 14]: 100; Plant response rating: Speedwell [2, 7]: 100; Plant response rating: Speedwell [2, 8]: 100; Plant response rating: Speedwell [2, 9]: 100; Plant response rating: Speedwell [2, 10]: 100; Plant response rating, Speedwell [2, 15]: 100; Plant response rating: Windgrass [3, 7]: 10; Plant response rating: Windgrass [3, 8]: 25; Plant response rating: Windgrass [3, 9]: 75; Plant response rating: Windgrass [3, 10]: 100; Plant response rating, Windgrass [3, 15]: 5; Plant response rating, Windgrass [3, 11]: 30; Plant response rating, Windgrass [3, 12]: 40; Plant response rating, Windgrass [3, 13]: 100; Plant response rating, Windgrass [3, 14]: 100; Plant response rating: Oat, Wild [4, 7]: 10; Plant response rating: Oat, Wild [4, 8]: 10; Plant response rating: Oat, Wild [4, 9]: 30; Plant response rating: Oat, Wild [4, 10]: 40; Plant response rating, Oat, Wild [4, 15]: 10; Plant response rating, Oat, Wild [4, 12]: 15; Plant response rating, Oat, Wild [4, 13]: 40; Plant response rating, Oat, Wild [4, 14]: 100; Plant response rating: Foxtail, Green [5, 7]: 30; Plant response rating: Foxtail, Green [5, 8]: 80; Plant response rating: Foxtail, Green [5, 9]: 75; Plant response rating: Foxtail, Green [5, 10]: 100; Plant response rating, Foxtail, Green [5, 15]: 15; Plant response rating, Foxtail, Green [5, 11]: 70; Plant response rating, Foxtail, Green [5, 12]: 100; Plant response rating, Foxtail, Green [5, 13]: 100; Plant response rating, Foxtail, Green [5, 14]: 100; Plant response rating: Bluegrass [6, 7]: 10; Plant response rating: Bluegrass [6, 8]: 25; Plant response rating: Bluegrass [6, 9]: 50; Plant response rating: Bluegrass [6, 10]: 95; Plant response rating, Bluegrass [6, 15]: 0; Plant response rating, Bluegrass [6, 11]: 0; Plant response rating, Bluegrass [6, 12]: 5; Plant response rating, Bluegrass [6, 13]: 80; Plant response rating, Bluegrass [6, 14]: 100

**Q.** With `Cc1nn(-c2ccc(C(F)(F)F)cn2)nc1Oc1ccnc(C(F)(F)F)c1` [Compound 23] as the molecule, how does the “Plant response rating: Pigweed” value [1, 7] read?
**A.** 50

**Q.** What about the “Plant response rating: Pigweed” value [1, 8] of the same molecule?
**A.** 80

**Q.** What about the “Plant response rating: Pigweed” value [1, 9] of the same molecule?
**A.** 95

**Q.** What about the “Plant response rating: Pigweed” value [1, 10] of the same molecule?
**A.** 100

**Q.** And the “Plant response rating, Pigweed” value [1, 15]?
**A.** 50

**Q.** And the “Plant response rating: Speedwell” value [2, 7]?
**A.** 10

**Q.** And the “Plant response rating: Speedwell” value [2, 8]?
**A.** 20

**Q.** What about the “Plant response rating: Speedwell” value [2, 9] of the same molecule?
**A.** 50

**Q.** What about the “Plant response rating: Speedwell” value [2, 10] of the same molecule?
**A.** 60

**Q.** And the “Plant response rating, Speedwell” value [2, 15]?
**A.** 5

**Q.** What about the “Plant response rating: Windgrass” value [3, 7] of the same molecule?
**A.** 5

**Q.** What about the “Plant response rating: Windgrass” value [3, 8] of the same molecule?
**A.** 10

**Q.** And the “Plant response rating: Windgrass” value [3, 9]?
**A.** 20

**Q.** And the “Plant response rating: Windgrass” value [3, 10]?
**A.** 30

**Q.** And the “Plant response rating, Windgrass” value [3, 15]?
**A.** 0

**Q.** And the “Plant response rating: Oat, Wild” value [4, 7]?
**A.** 10

**Q.** What about the “Plant response rating: Oat, Wild” value [4, 8] of the same molecule?
**A.** 10

**Q.** What about the “Plant response rating: Oat, Wild” value [4, 9] of the same molecule?
**A.** 15

**Q.** And the “Plant response rating: Oat, Wild” value [4, 10]?
**A.** 20

**Q.** And the “Plant response rating, Oat, Wild” value [4, 15]?
**A.** 10

**Q.** What about the “Plant response rating: Foxtail, Green” value [5, 7] of the same molecule?
**A.** 15

**Q.** And the “Plant response rating: Foxtail, Green” value [5, 8]?
**A.** 20

**Q.** And the “Plant response rating: Foxtail, Green” value [5, 9]?
**A.** 25

**Q.** And the “Plant response rating: Foxtail, Green” value [5, 10]?
**A.** 25

**Q.** What about the “Plant response rating, Foxtail, Green” value [5, 15] of the same molecule?
**A.** 15

**Q.** And the “Plant response rating: Bluegrass” value [6, 7]?
**A.** 20

**Q.** What about the “Plant response rating: Bluegrass” value [6, 8] of the same molecule?
**A.** 25

**Q.** And the “Plant response rating: Bluegrass” value [6, 9]?
**A.** 30

**Q.** What about the “Plant response rating: Bluegrass” value [6, 10] of the same molecule?
**A.** 40

**Q.** And the “Plant response rating, Bluegrass” value [6, 15]?
**A.** 20
